Reference: US20190133128A1, “Fungicidal pyridazinones” (FMC Corporation, priority 2017, published 2019)

Key:
Format in all cases: in vivo
[1] = tested on: Phakopsora pachyrhizi; test: Test A: preventive spray on soybean seedlings, Asian soybean rust, visual disease rating; details: 250 ppm, 100 = 100% disease control, 0 = no control; for pest or weed control at 250 ppm: Phakopsora pachyrhizi
[2] = tested on: Botrytis cinerea; test: Test C: preventive spray on tomato seedlings, gray mold, visual disease rating; details: 250 ppm, 100 = 100% disease control, 0 = no control; for pest or weed control at 250 ppm: Botrytis cinerea
Text: (§1) General protocol for preparing test solutions for Tests AG: the test compounds were first dissolved in acetone in an amount equal to 3% of the final volume and then suspended at the desired concentration (in ppm) in acetone and purified water (50/50 mix by volume) containing the surfactant PEG400 (polyhydric alcohol esters). The resulting test suspensions were then used in Tests AG. Compounds were sprayed at a concentration of 250 ppm or other indicated rate to the point of run-off on the test plants. The test solution was sprayed to the point of run-off on tomato seedlings. […] A dash (-) indicates no test results.

[3] = tested on: Phytophthora infestans; test: whole plant or invertebrate; details: for Test D disease control rating: 250 ppm, tomato seedlings, 100 = 100% disease control, 0 = no control; for pest or weed control at 250 ppm: Phytophthora infestans, in Solanum lycopersicum, read-out: Test D disease control rating
[4] = tested on: Zymoseptoria tritici; test: Test E: preventive spray on wheat seedlings, wheat leaf blotch, visual disease rating; details: 250 ppm, 100 = 100% disease control, 0 = no control; for pest or weed control at 250 ppm: Zymoseptoria tritici
Text: as §1, with “wheat” for “tomato”

[5] = tested on: Puccinia recondita f. sp. tritici; test: Test F: preventive spray on wheat seedlings, wheat leaf rust, visual disease rating; details: 250 ppm, 100 = 100% disease control, 0 = no control; for pest or weed control at 250 ppm: Puccinia recondita
Text: as §1, with “wheat” for “tomato”, “seedlings. The following day the seedlings were inoculated with a spore suspension of Puccinia recondita f. sp. tritici;” for “seedlings.”

[6] = tested on: Erysiphe graminis f. sp. tritici; test: Test G: preventive spray on wheat seedlings, wheat powdery mildew, visual disease rating; details: 250 ppm, 100 = 100% disease control, 0 = no control; for pest or weed control at 250 ppm: Blumeria graminis, 192 h
Text: as §1, with “wheat” for “tomato”

Row | SMILES | Test A disease control rating [1] [%] | Test C disease control rating [2] [%] | Test D disease control rating [3] [%] | Test E disease control rating [4] [%] | Test F disease control rating [5] [%] | Test G disease control rating [6] [%] | pest or weed control at 250 ppm [1] [%] | pest or weed control at 250 ppm [2] [%] | pest or weed control at 250 ppm [3] [%] | pest or weed control at 250 ppm [4] [%] | pest or weed control at 250 ppm [5] [%] | pest or weed control at 250 ppm [6] [%]
1 | Cn1ncc(OC(=O)c2ccccc2)c(C(=O)N(C(=O)c2ccccc2)c2ccc(OC(F)(F)F)cc2)c1=O [Compound 81] | 0 | 0 | 0 | 67 | 98 | 0 | – | – | – | – | – | –
2 | Cn1ncc(OS(C)(=O)=O)c(C(=O)Nc2ccc(OC(F)(F)F)cc2)c1=O [Compound 90] | 98 | 60 | 78 | 100 | 98 | 0 | – | – | – | – | – | –
3 | Cn1ncc(O)c(C(=O)Nc2ccc(S(F)(F)(F)(F)F)cc2)c1=O [Compound 91, [4-[[[2,3-Dihydro-5-hydroxy-2-methyl-3-oxo-4-pyridazinyl]carbonyl]amino]phenyl]pentafluorosulfur] | – | – | – | – | – | – | 46 | 0 | 97 | 100 | 99 | 89
4 | Cn1ncc(OS(C)(=O)=O)c(C(=O)Nc2ccc(C(F)(F)F)cc2)c1=O [Compound 96, 2,3-Dihydro-2-methyl-5-[(methylsulfonyl)oxy]-3-oxo-N-[4-(trifluoromethyl)phenyl]-4-pyridazinecarboxamide] | – | – | – | – | – | – | 98 | 30 | 0 | 97 | 99 | 84
5 | Cn1ncc(OS(C)(=O)=O)c(C(=O)Nc2ccc(OC(F)F)cc2)c1=O [Compound 97, N-[4-(Difluoromethoxy)phenyl]-2,3-dihydro-2-methyl-5-[(methylsulfonyl)oxy]-3-oxo-4-pyridazinecarboxamide] | – | – | – | – | – | – | 95 | 40 | 95 | 100 | 99 | 91
6 | Cn1ncc(OS(C)(=O)=O)c(C(=O)Nc2ccc(C#N)cc2)c1=O [Compound 98, N-(4-cyanophenyl)-2,3-dihydro-2-methyl-5-[(methylsulfonyl)oxy]-3-oxo-4-pyridazinecarboxamide] | – | – | – | – | – | – | 99 | 98 | 9 | 95 | 97 | 0
7 | Cn1ncc(OS(C)(=O)=O)c(C(=O)Nc2ccc(S(F)(F)(F)(F)F)cc2)c1=O [Compound 99, [4-[[[2,3-Dihydro-2-methyl-5-[(methylsulfonyl)oxy]-3-oxo-4-pyridazinyl]carbonyl]amino]phenyl]pentafluorosulfur] | – | – | – | – | – | – | 99 | 50 | 92 | 100 | 98 | 83
8 | Cn1ncc(OS(C)(=O)=O)c(C(=O)Nc2ccc(OC(F)(F)F)cc2F)c1=O [Compound 100] | 94 | 98 | 0 | 92 | 95 | 0 | – | – | – | – | – | –
9 | Cn1ncc(OS(C)(=O)=O)c(C(=O)Nc2ccc(F)cc2)c1=O [Compound 101] | 78 | 0 | 9 | 78 | 99 | 0 | – | – | – | – | – | –
10 | Cn1ncc(OS(C)(=O)=O)c(C(=O)Nc2ccc(C(F)(F)F)cc2F)c1=O [Compound 102] | 99 | 41 | 26 | 95 | 99 | 0 | – | – | – | – | – | –
